Test results from patent publication US8372967B2, “Compounds and methods for modulating expression of GCCR” (Isis Pharmaceuticals, Inc., priority 2006, dated 2013).
Strand notation (5' to 3'): a small letter for the sugar, then the base; units joined by * are phosphorothioate-linked, units joined directly phosphodiester-linked; [ ] holds rarer units or linkages, { } end groups; capitals alone tell only the bases. e = 2'-O-(2-methoxyethyl) (MOE); [5mC] = 5-methylcytosine; d = 2'-deoxy (DNA)

How the values were obtained:
human SGLT2 = target: T1, human SGLT2 (Homo sapiens, UniProt P31639); settings: Xenopus oocytes; cited from earlier work
T1 construct: host or cells: Xenopus oocytes
T1 sequence (P31639 1-672): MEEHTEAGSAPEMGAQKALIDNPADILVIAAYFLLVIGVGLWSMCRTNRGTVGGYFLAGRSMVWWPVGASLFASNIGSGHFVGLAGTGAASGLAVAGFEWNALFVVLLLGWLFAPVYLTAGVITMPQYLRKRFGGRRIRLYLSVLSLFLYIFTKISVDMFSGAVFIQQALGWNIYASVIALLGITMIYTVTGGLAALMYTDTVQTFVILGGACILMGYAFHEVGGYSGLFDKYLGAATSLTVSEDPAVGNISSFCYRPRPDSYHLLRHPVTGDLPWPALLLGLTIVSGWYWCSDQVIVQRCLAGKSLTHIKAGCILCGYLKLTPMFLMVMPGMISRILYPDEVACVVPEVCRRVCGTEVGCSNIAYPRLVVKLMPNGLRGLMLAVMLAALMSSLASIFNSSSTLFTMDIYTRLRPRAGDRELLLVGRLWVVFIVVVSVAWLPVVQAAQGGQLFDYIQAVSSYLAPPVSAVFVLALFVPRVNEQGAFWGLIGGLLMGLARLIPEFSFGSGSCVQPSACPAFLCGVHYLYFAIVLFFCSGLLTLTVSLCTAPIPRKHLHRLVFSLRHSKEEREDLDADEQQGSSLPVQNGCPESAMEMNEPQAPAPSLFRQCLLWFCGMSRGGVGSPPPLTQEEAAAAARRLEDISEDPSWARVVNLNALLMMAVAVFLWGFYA

mouse SGLT2 mRNA [1] = test: Mouse SGLT2 mRNA in kidney, MOE versus Methyleneoxy BNA gapmers (Table 69); assay type: in vivo; settings: Balb/c mouse kidney
Procedure: The effect of ISIS 3796921-10-1 MOE gapmer and ISIS 3886252-8-2 MOE gapmer are compared with the effect of ISIS 3921701-10-1 Methyleneoxy BNA Gapmer and ISIS 3921732-8-2 Methyleneoxy BNA Gapmer (see Table 69) on mouse SGLT2 mRNA levels in vivo. Data are taken from three experiments in which male 6-week old Balb/c mice were dosed twice per week for three weeks with 5, 25 and 125 nmol/kg of either the ISIS 3796921-10-1 MOE gapmer or the ISIS 3886252-8-2 MOE gapmer given by intraperitoneal injection. Mice were sacrificed 48 hours following last administration and evaluated for SGLT2 mRNA levels in kidney. Target levels were determined by RT, real-time PCR as described by other examples herein. PCR results were normalized to an internal ISIS control. The data are expressed as percent change (“+” indicates an increase, “−” indicates a decrease) relative to saline treated animals and are illustrated in Table 69.

rat SGLT2 mRNA = test: Rat SGLT2 mRNA in kidney, 1-10-1 and 2-8-2 MOE gapmer (Table 70); assay type: in vivo; settings: Sprague-Dawley rat kidney
Procedure: The effect of ISIS 3796921-10-1 MOE gapmer and ISIS 388625 MOE 2-8-2 gapmer (see Table 70) on rat SGLT2 mRNA levels in vivo. […] Rats were sacrificed 48 hours following last administration and evaluated for SGLT2 levels in kidney. Target levels were determined by RT, real-time PCR as described by other examples herein. PCR results were normalized to an internal ISIS control.

dog SGLT2 mRNA = test: Dog SGLT2 mRNA levels in kidney (Table 73); assay type: in vivo; settings: 1 mg/kg/wk dose
Procedure: (§1) ISIS 388625 is a 2-8-2 MOE Gapmer with sequence […] (SEQ ID NO: 246) (e.g. see Table 71). The effect of ISIS 388625 on dog SGLT2 mRNA levels. Data are taken from two dosing groups in which a total of nine male beagle dogs were dosed with either one or ten mg/kg/week of ISIS 388625 or saline given by subcutaneous injection twice weekly. On day 46 of the study all dogs were sacrificed and evaluated for SGLT2 levels in kidney. Target levels were determined by quantitative RT, real-time PCR as described by other examples herein. PCR results were normalized to an internal ISIS control.

[2] = Plasma glucose in ZDF rat (Table 71); assay type: in vivo; settings: ZDF rats, 400 nM/kg i.p. once a week for twelve weeks; compared to PBS and control
Procedure: (§2) ISIS 388625, 388626 and control oligo ISIS 388628 were analyzed for their effect on ZDF rat plasma glucose levels and HbA1c. The leptin receptor deficient Zucker diabetic fatty (ZDF) rat is a useful model for the investigation of type 2 diabetes. Diabetes develops spontaneously in these male rats at ages 8-10 weeks, and is associated with hyperphagia, polyuria, polydipsia, and impaired weight gain, symptoms which parallel the clinical symptoms of diabetes (Phillips M S, et al., 1996, Nat Genet. 13, 18-19). Six week old ZDF rats were injected intraperitoneally with short antisense compound at a dose of 400 nM/kg once a week for twelve weeks. Data are illustrated in Tables 71 and 72.

[3] = HbA1c status in ZDF rat (Table 72); assay type: in vivo; settings: ZDF rats, 400 nM/kg i.p. once a week for twelve weeks; compared to PBS and control
Procedure: as §2

mouse SGLT2 mRNA [4] = test: Mouse SGLT2 mRNA in kidney, additional 1-10-1 and 2-8-2 MOE gapmers (Table 68); assay type: in vivo; settings: Balb/c mouse kidney
[5] = Standard glucose tolerance test and urinary glucose excretion in dog; assay type: in vivo; settings: standard glucose tolerance test, on average, compared to saline controls
Procedure: as §1
Even greater reduction can be achieved at slightly higher doses. […] Peak plasma glucose levels were decreased by over 50% on average and the subsequent drop in glucose was lessened compared to saline controls in a standard glucose tolerance test.

Compound | transport activity (human SGLT2) | SGLT2 mRNA, percent change relative to saline treated animals (mouse SGLT2 mRNA [1]; 5 nmol/kg i.p. twice per week for three weeks) [%] | SGLT2 mRNA, percent change relative to saline treated animals (mouse SGLT2 mRNA [1]; 25 nmol/kg i.p. twice per week for three weeks) [%] | SGLT2 mRNA, percent change relative to saline treated animals (mouse SGLT2 mRNA [1]; 125 nmol/kg i.p. twice per week for three weeks) [%] | % change in SGLT2 expression relative to saline (rat SGLT2 mRNA; dose 3.125 umol/kg [sic] i.p. twice per week for three weeks) | % change in SGLT2 expression relative to saline (rat SGLT2 mRNA; dose 12.5 umol/kg [sic] i.p. twice per week for three weeks) [%] | % change in SGLT2 expression relative to saline (rat SGLT2 mRNA; dose 50 umol/kg [sic] i.p. twice per week for three weeks) [%] | % change in SGLT2 expression relative to saline (rat SGLT2 mRNA; dose 200 umol/kg [sic] i.p. twice per week for three weeks) [%] | reduction of SGLT2 mRNA (dog SGLT2 mRNA) | Plasma glucose levels [2] | HbA1C [3] | % change in SGLT2 expression relative to saline (mouse SGLT2 mRNA [4]; 0.02 umol/kg i.p. twice per week for three weeks) [%] | % change in SGLT2 expression relative to saline (mouse SGLT2 mRNA [4]; 0.1 umol/kg i.p. twice per week for three weeks) [%] | % change in SGLT2 expression relative to saline (mouse SGLT2 mRNA [4]; 0.5 umol/kg i.p. twice per week for three weeks) [%] | Peak plasma glucose levels decreased [5]
O=C(CCc1ccc(O)cc1)c1c(O)cc(O)cc1O[C@@H]1O[C@H](CO)[C@@H](O)[C@H](O)[C@H]1O [phlorizin] | suppressed |  |  |  |  |  |  |  |  |  |  |  |  |  | 
ISIS 388625: TGTTCCAGCCCA 2-8-2 MOE Gapmer, SGLT2 (eT*eG*dT*dT*d[5mC]*d[5mC]*dA*dG*d[5mC]*d[5mC]*e[5mC]*eA) |  | −18 | −47 | −70 | +25% | −15 | −65 | −80 | greater than 80% | significantly reduced | significantly reduced | −65 | −88 | −90 | over 50%
